# Assay results taken from US8247211B2, “Glycopeptide antibiotics” (American Cyanamid Company, priority 2001, dated 2012).
# Columns and labels:
# Test in all cases: In vitro antibacterial evaluation: minimum inhibitory concentration (MIC), broth dilution method
# Assay type in all cases: cell-based
# Enterococcus sp. = conditions: 18 hours at 35° C.
# Protocol: (§1) The minimum inhibitory concentration (MIC), the lowest concentration of the antibiotic which inhibits growth of the test organism, is determined by the broth dilution method using Muller-Hinton II […] (Baltimore Biological Laboratories) following the recommendations of the National Committee for Clinical Laboratory Standards [Methods for dilution antimicrobial susceptibility tests for bacteria that grow aerobically, approved standard M7-A2, National Committee for Clinical Laboratory Standards, Villanova, Pa].
# (§2) An inoculum level of 5×10^5 CFU/mL, and a range of antibiotic concentrations (64-0.06 μg/mL) is used. […] The test organisms include a spectrum of Gram-positive bacteria comprised of Staphylococcus sp., Streptococcus sp. and Enterococcus sp. These organisms include recent clinical isolates that are resistant to methicillin, penicillin and/or vancomycin.
# Escherichia coli = conditions: 18 hours at 35° C.
# Protocol: as §1, §2
# Staphylococcus sp. = system: Staphylococcus sp.
# Protocol: as §1, §2
# Streptococcus sp. = conditions: 18 hours at 35° C.
# Protocol: as §1, §2
# [1] = broth dilution, 5×10^5 CFU/mL, 18 hours at 35° C.
smiles,measurement,setting,value
"CC(c1ccccc1)C1NC(=O)CNC(=O)C(CO)NC(=O)C(C(O)C2CNC(=N)N2C2OC(CO)C(O)C(O)C2O)NC(=O)C(C(O)C2CNC(=N)N2)NC(=O)C(Cc2ccc(OC3OC(CO)C(OC4OC5COC(c6ccsc6)OC5C(O)C4O)C(O)C3O)cc2)NC1=O (stereo not drawn) [Example 133, Cyclo[glycyl-β-methylphenylalanyl-O-[4-O-[4,6-O-(3-thienylmethylene)hexopyranosyl]-hexopyranosyl]tyrosyl-3-(2-iminoimidazolidin-4-yl)seryl-3-(3-hexopyranosyl-2-iminoimidazolidin-4-yl)serylseryl]]",MIC Enterococccus avium (GC 4558),"Enterococcus sp.; broth dilution, 5×10^5 CFU/mL",8 µg/mL
same,MIC Enterococccus faecalis (ATCC 29212),"Enterococcus sp.; broth dilution, 5×10^5 CFU/mL",8 µg/mL
same,MIC Enterococccus faecalis (GC 2691),"Enterococcus sp.; broth dilution, 5×10^5 CFU/mL",8 µg/mL
same,MIC Enterococccus faecalis (GC 3059),"Enterococcus sp.; broth dilution, 5×10^5 CFU/mL",8 µg/mL
same,MIC Enterococccus faecalis (GC 4552),"Enterococcus sp.; broth dilution, 5×10^5 CFU/mL",8 µg/mL
same,MIC Enterococccus faecalis (GC 4553),"Enterococcus sp.; broth dilution, 5×10^5 CFU/mL",8 µg/mL
same,MIC Enterococccus faecalis (GC 4554),"Enterococcus sp.; broth dilution, 5×10^5 CFU/mL",8 µg/mL
same,MIC Enterococccus faecalis (GC 6189),"Enterococcus sp.; broth dilution, 5×10^5 CFU/mL",4 µg/mL
same,MIC Enterococccus faecium (GC 2243),"Enterococcus sp.; broth dilution, 5×10^5 CFU/mL",8 µg/mL
same,MIC Enterococccus faecium (GC 4556),"Enterococcus sp.; broth dilution, 5×10^5 CFU/mL",8 µg/mL
same,MIC Enterococccus faecium (GC 4557),"Enterococcus sp.; broth dilution, 5×10^5 CFU/mL",2 µg/mL
same,MIC Enterococcus faecalis (GC 2242),"Enterococcus sp.; broth dilution, 5×10^5 CFU/mL",4 µg/mL
same,MIC Escherichia coli (ATCC 25922),Escherichia coli; 5×10^5 CFU/mL,64 µg/mL
same,MIC Escherichia coli (GC 4559),Escherichia coli; 5×10^5 CFU/mL,32 µg/mL
same,MIC Escherichia coli (GC 4560),Escherichia coli; 5×10^5 CFU/mL,<0.5 µg/mL
same,MIC Coagulase Negative Staphylococcus (GC 4547),Staphylococcus sp.; [1],1 µg/mL
same,MIC Coagulase Negative Staphylococcus (GC 4548),Staphylococcus sp.; [1],<0.5 µg/mL
same,MIC Coagulase Negative Staphylococcus (GC 4549),Staphylococcus sp.; [1],1 µg/mL
same,MIC Coagulase Negative Staphylococcus (GC 4551),Staphylococcus sp.; [1],1 µg/mL
same,MIC Coagulase Negative Staphylococcus (GC 6257),Staphylococcus sp.; [1],1 µg/mL
same,MIC Staphylococcus aureus-SMITH (GC 4543),Staphylococcus sp.; [1],1 µg/mL
same,MIC Staphylococcus haemolyticus (GC 4546),Staphylococcus sp.; [1],1 µg/mL
same,MIC Staphylococcus aureus (ATCC 29213),Staphylococcus sp.; strain ATCC 29213,1 µg/mL
same,MIC Staphylococcus aureus (ATCC 29213),"Staphylococcus sp.; strain ATCC 29213, broth dilution, 18 hours at 35° C.",1 µg/mL
same,MIC Staphylococcus aureus (GC 1131),Staphylococcus sp.; strain GC 1131,2 µg/mL
same,MIC Staphylococcus aureus (GC 1131),"Staphylococcus sp.; strain GC 1131, broth dilution, 18 hours at 35° C.",2 µg/mL
same,MIC Staphylococcus aureus (GC 3051),Staphylococcus sp.; strain GC 3051,1 µg/mL
same,MIC Staphylococcus aureus (GC 3051),"Staphylococcus sp.; strain GC 3051, broth dilution, 18 hours at 35° C.",1 µg/mL
same,MIC Staphylococcus aureus (GC 3053),Staphylococcus sp.; strain GC 3053,4 µg/mL
same,MIC Staphylococcus aureus (GC 3053),"Staphylococcus sp.; strain GC 3053, broth dilution, 18 hours at 35° C.",4 µg/mL
same,MIC Staphylococcus aureus (GC 4541),Staphylococcus sp.; strain GC 4541,1 µg/mL
same,MIC Staphylococcus aureus (GC 4541),"Staphylococcus sp.; strain GC 4541, broth dilution, 18 hours at 35° C.",1 µg/mL
same,MIC Staphylococcus aureus (GC 4542),Staphylococcus sp.; strain GC 4542,2 µg/mL
same,MIC Staphylococcus aureus (GC 4542),"Staphylococcus sp.; strain GC 4542, broth dilution, 18 hours at 35° C.",2 µg/mL
same,MIC Staphylococcus aureus-SMITH (GC 4543),"Staphylococcus sp.; strain GC 4543, broth dilution, 18 hours at 35° C.",1 µg/mL
same,MIC Staphylococcus aureus (GC 4544),Staphylococcus sp.; strain GC 4544,2 µg/mL
same,MIC Staphylococcus aureus (GC 4544),"Staphylococcus sp.; strain GC 4544, broth dilution, 18 hours at 35° C.",2 µg/mL
same,MIC Staphylococcus aureus (GC 4545),Staphylococcus sp.; strain GC 4545,1 µg/mL
same,MIC Staphylococcus aureus (GC 4545),"Staphylococcus sp.; strain GC 4545, broth dilution, 18 hours at 35° C.",1 µg/mL
same,MIC Staphylococcus haemolyticus (GC 4546),"Staphylococcus sp.; strain GC 4546, broth dilution, 18 hours at 35° C.",1 µg/mL
same,MIC Coagulase Negative Staphylococcus (GC 4547),"Staphylococcus sp.; strain GC 4547, broth dilution, 18 hours at 35° C.",1 µg/mL
same,MIC Coagulase Negative Staphylococcus (GC 4548),"Staphylococcus sp.; strain GC 4548, broth dilution, 18 hours at 35° C.",<0.5 µg/mL
same,MIC Coagulase Negative Staphylococcus (GC 4549),"Staphylococcus sp.; strain GC 4549, broth dilution, 18 hours at 35° C.",1 µg/mL
same,MIC Coagulase Negative Staphylococcus (GC 4551),"Staphylococcus sp.; strain GC 4551, broth dilution, 18 hours at 35° C.",1 µg/mL
same,MIC Coagulase Negative Staphylococcus (GC 6257),"Staphylococcus sp.; strain GC 6257, broth dilution, 18 hours at 35° C.",1 µg/mL
same,MIC Streptococcus agalactiae (GC 4564),"Streptococcus sp.; broth dilution, 5×10^5 CFU/mL",<0.5 µg/mL
same,MIC Streptococcus pneumoniae (GC 1894),"Streptococcus sp.; broth dilution, 5×10^5 CFU/mL",<0.5 µg/mL
same,MIC Streptococcus pneumoniae (GC 4565),"Streptococcus sp.; broth dilution, 5×10^5 CFU/mL",4 µg/mL
same,MIC Streptococcus pneumonine (ATCC 6301),"Streptococcus sp.; broth dilution, 5×10^5 CFU/mL",<0.5 µg/mL
same,MIC Streptococcus pyogenes (GC 4563),"Streptococcus sp.; broth dilution, 5×10^5 CFU/mL",<0.5 µg/mL
CC(c1ccccc1)C1NC(=O)CNC(=O)C(CO[Si](C)(C)C(C)(C)C)NC(=O)C(C(O)C2CNC(=N)N2C2OC3COC(C)(C)OC3C3OC(C)(C)OC32)NC(=O)C(C(O)C2CNC(=N)N2)NC(=O)C(Cc2ccc(O)cc2)NC1=O (stereo not shown) [Example 248],MIC Enterococcus avium (GC 4558),Enterococcus sp.; Enterococcus avium (GC 4558),8 µg/mL
same,MIC Enterococcus faecalis (ATCC 29212),Enterococcus sp.; Enterococcus faecalis (ATCC 29212),64 µg/mL
same,MIC Enterococcus faecalis (GC 2242),Enterococcus sp.; Enterococcus faecalis (GC 2242),64 µg/mL
same,MIC Enterococcus faecalis (GC 2691),Enterococcus sp.; Enterococcus faecalis (GC 2691),32 µg/mL
same,MIC Enterococcus faecalis (GC 4553),Enterococcus sp.; Enterococcus faecalis (GC 4553),16 µg/mL
same,MIC Enterococcus faecalis (GC 4554),Enterococcus sp.; Enterococcus faecalis (GC 4554),64 µg/mL
same,MIC Enterococcus faecalis (GC 6189),Enterococcus sp.; Enterococcus faecalis (GC 6189),32 µg/mL
same,MIC Enterococcus faecium (GC 2243),Enterococcus sp.; Enterococcus faecium (GC 2243),32 µg/mL
same,MIC Enterococcus faecium (GC 4556),Enterococcus sp.; Enterococcus faecium (GC 4556),32 µg/mL
same,MIC Enterococcus faecium (GC 4557),Enterococcus sp.; Enterococcus faecium (GC 4557),16 µg/mL
same,MIC Escherichia coli (ATCC 25922),Escherichia coli; Escherichia coli (ATCC 25922),64 µg/mL
same,MIC Escherichia coli (GC 4559),Escherichia coli; Escherichia coli (GC 4559),64 µg/mL
same,MIC Escherichia coli (GC 4560),Escherichia coli; Escherichia coli (GC 4560),8 µg/mL
same,MIC Coagulase Negative Staphylococcus (GC 4547),"Staphylococcus sp.; Coagulase Negative Staphylococcus (GC 4547), 18 hours at 35° C.",16 µg/mL
same,MIC Coagulase Negative Staphylococcus (GC 4548),"Staphylococcus sp.; Coagulase Negative Staphylococcus (GC 4548), 18 hours at 35° C.",32 µg/mL
same,MIC Coagulase Negative Staphylococcus (GC 4549),"Staphylococcus sp.; Coagulase Negative Staphylococcus (GC 4549), 18 hours at 35° C.",32 µg/mL
same,MIC Coagulase Negative Staphylococcus (GC 4551),"Staphylococcus sp.; Coagulase Negative Staphylococcus (GC 4551), 18 hours at 35° C.",32 µg/mL
same,MIC Coagulase Negative Staphylococcus (GC 6257),"Staphylococcus sp.; Coagulase Negative Staphylococcus (GC 6257), 18 hours at 35° C.",16 µg/mL
same,MIC Staphylococcus aureus (ATCC 29213),"Staphylococcus sp.; Staphylococcus aureus (ATCC 29213), 18 hours at 35° C.",32 µg/mL
same,MIC Staphylococcus aureus (GC 1131),"Staphylococcus sp.; Staphylococcus aureus (GC 1131), 18 hours at 35° C.",32 µg/mL
same,MIC Staphylococcus aureus (GC 3051),"Staphylococcus sp.; Staphylococcus aureus (GC 3051), 18 hours at 35° C.",64 µg/mL
same,MIC Staphylococcus aureus (GC 3053),"Staphylococcus sp.; Staphylococcus aureus (GC 3053), 18 hours at 35° C.",64 µg/mL
same,MIC Staphylococcus aureus (GC 4541),"Staphylococcus sp.; Staphylococcus aureus (GC 4541), 18 hours at 35° C.",32 µg/mL
same,MIC Staphylococcus aureus (GC 4542),"Staphylococcus sp.; Staphylococcus aureus (GC 4542), 18 hours at 35° C.",64 µg/mL
same,MIC Staphylococcus aureus (GC 4544),"Staphylococcus sp.; Staphylococcus aureus (GC 4544), 18 hours at 35° C.",32 µg/mL
same,MIC Staphylococcus aureus (GC 4545),"Staphylococcus sp.; Staphylococcus aureus (GC 4545), 18 hours at 35° C.",32 µg/mL
same,MIC Staphylococcus aureus-SMITH (GC 4543),"Staphylococcus sp.; Staphylococcus aureus-SMITH (GC 4543), 18 hours at 35° C.",32 µg/mL
same,MIC Staphylococcus haemolyticus (GC 4546),"Staphylococcus sp.; Staphylococcus haemolyticus (GC 4546), 18 hours at 35° C.",16 µg/mL
same,MIC Streptococcus agalactiae (GC 4564),Streptococcus sp.; Streptococcus agalactiae (GC 4564),64 µg/mL
same,MIC Streptococcus pneumoniae (ATCC 6301),Streptococcus sp.; Streptococcus pneumoniae (ATCC 6301),64 µg/mL
same,MIC Streptococcus pneumoniae (GC 1894),Streptococcus sp.; Streptococcus pneumoniae (GC 1894),64 µg/mL
same,MIC Streptococcus pyogenes (GC 4563),Streptococcus sp.; Streptococcus pyogenes (GC 4563),32 µg/mL
